From ChEMBL document CHEMBL3774317, “Design and synthesis of novel tamoxifen analogues that avoid CYP2D6 metabolism” (Eur J Med Chem, 2016) come the findings set out here.

What all share (format): functional
Experiment [1] is described as follows: Cytotoxicity against human Caki1 cells assessed as cell growth at 10^-5 M after 48 hrs by SRB assay. To be noted: CAKI-1, 48 h, read-out: Activity. (The SRB assay estimates cell density from bound dye.)
The subject of experiment [2] is SR. Kind of experiment: Cytotoxicity against human SR cells assessed as cell growth at 10^-7 M after 48 hrs by SRB assay. Particulars: read-out: Activity.
A short description of experiment [3]: Cytotoxicity against human TK10 cells assessed as cell growth at 10^-8 M after 48 hrs by SRB assay. To be noted: TK-10, 48 h, read-out: Activity.
Experiment [4] relates to NCI-H226. The experiment is described as follows: Cytotoxicity against human NCI-H226 cells assessed as cell growth at 10^-5 M after 48 hrs by SRB assay. To be noted: NCI-H226, 48 h, read-out: Activity.
The nature of experiment [5]: Cytotoxicity against human UACC62 cells assessed as cell growth at 10^-7 M after 48 hrs by SRB assay. Particulars: UACC-62, 48 h, read-out: Activity.
The nature of experiment [6]: Cytotoxicity against human HCT15 cells assessed as cell growth at 10^-7 M after 48 hrs by SRB assay. Particulars: HCT-15, 48 h, read-out: Activity.
Experiment [7] deals with NCI-H522. The experiment is described as follows: Cytotoxicity against human NCI-H522 cells assessed as cell growth at 10^-5 M after 48 hrs by SRB assay. To be noted: NCI-H522, 48 h, read-out: Activity.
Experiment [8] in a line: Cytotoxicity against human SNB19 cells assessed as cell growth at 10^-6 M after 48 hrs by SRB assay. To be noted: SNB-19, 48 h, read-out: Activity.
Experiment [9] relates to A498. The experiment is described as follows: Cytotoxicity against human A498 cells assessed as cell growth at 10^-5 M after 48 hrs by SRB assay. Particulars: A498, 48 h, read-out: Activity.
The test system of experiment [10] is HT-29. The experiment is described as follows: Cytotoxicity against human HT-29 cells assessed as cell growth at 10^-5 M after 48 hrs by SRB assay. Particulars: HT-29, 48 h, read-out: Activity.
The subject of experiment [11] is SK-MEL-2. The experiment is described as follows: Cytotoxicity against human SK-MEL-2 cells assessed as cell growth at 10^-8 M after 48 hrs by SRB assay. Particulars: SK-MEL-2, 48 h, read-out: Activity.
A short description of experiment [12]: Cytotoxicity against human OVCAR5 cells assessed as cell growth at 10^-5 M after 48 hrs by SRB assay. To be noted: OVCAR-5, 48 h, read-out: Activity.
Experiment [13] is described as follows: Cytotoxicity against human TK10 cells assessed as cell growth at 10^-5 M after 48 hrs by SRB assay. Particulars: TK-10, 48 h, read-out: Activity.
Experiment [14] relates to A498. Kind of experiment: Cytotoxicity against human A498 cells assessed as cell growth at 10^-7 M after 48 hrs by SRB assay. Particulars: A498, 48 h, read-out: Activity.
Experiment [15] relates to SN12C. The experiment is described as follows: Cytotoxicity against human SN12C cells assessed as cell growth at 10^-5 M after 48 hrs by SRB assay. Particulars: read-out: Activity.
Experiment [16] is described as follows: Cytotoxicity against human HCT116 cells assessed as cell growth at 10^-7 M after 48 hrs by SRB assay. Particulars: HCT-116, 48 h, read-out: Activity.
For experiment [17], the system named is MDA-MB-468. Kind of experiment: Cytotoxicity against human MDA-MB-468 cells assessed as cell growth at 10^-4 M after 48 hrs by SRB assay. To be noted: MDA-MB-468, 48 h, read-out: Activity.
The nature of experiment [18]: Cytotoxicity against human SF268 cells assessed as cell growth at 10^-8 M after 48 hrs by SRB assay. Particulars: SF-268, 48 h, read-out: Activity.
Experiment [19] relates to NCI-H23. The experiment is described as follows: Cytotoxicity against human NCI-H23 cells assessed as cell growth at 10^-8 M after 48 hrs by SRB assay. To be noted: NCI-H23, 48 h, read-out: Activity.
Experiment [20] is described as follows: Cytotoxicity against human PC3 cells assessed as cell growth at 10^-7 M after 48 hrs by SRB assay. To be noted: PC-3, 48 h, read-out: Activity.
Experiment [21] in a line: Cytotoxicity against human RXF393 cells assessed as cell growth at 10^-5 M after 48 hrs by SRB assay. Particulars: RXF 393, 48 h, read-out: Activity.
The nature of experiment [22]: Cytotoxicity against human OVCAR5 cells assessed as cell growth at 10^-8 M after 48 hrs by SRB assay. Particulars: OVCAR-5, 48 h, read-out: Activity.
Experiment [23] relates to MDA-MB-468. Kind of experiment: Cytotoxicity against human MDA-MB-468 cells assessed as cell growth at 10^-8 M after 48 hrs by SRB assay. To be noted: MDA-MB-468, 48 h, read-out: Activity.
The nature of experiment [24]: Cytotoxicity against human IGROV1 cells assessed as cell growth at 10^-4 M after 48 hrs by SRB assay. To be noted: IGROV-1, 48 h, read-out: Activity.
A short description of experiment [25]: Cytotoxicity against human OVCAR5 cells assessed as cell growth at 10^-7 M after 48 hrs by SRB assay. Particulars: OVCAR-5, 48 h, read-out: Activity.
The nature of experiment [26]: Cytotoxicity against human HL-60(TB) cells assessed as cell growth at 0.5 uM after 48 hrs by SRB assay. Particulars: HL-60, 48 h, read-out: Activity.
Experiment [27] deals with A549. The experiment is described as follows: Cytotoxicity against human A549 cells assessed as cell growth at 50 uM after 48 hrs by SRB assay. Particulars: A549, 48 h, read-out: Activity.
Experiment [28] concerns Malme-3M. Kind of experiment: Cytotoxicity against human MALME-3M cells assessed as cell growth at 5 nM after 48 hrs by SRB assay. To be noted: read-out: Activity.
Experiment [29] has as its system NCI-H522. The experiment is described as follows: Cytotoxicity against human NCI-H522 cells assessed as cell growth at 50 nM after 48 hrs by SRB assay. To be noted: NCI-H522, 48 h, read-out: Activity.
A short description of experiment [30]: Cytotoxicity against human OVCAR3 cells assessed as cell growth at 5 uM after 48 hrs by SRB assay. Particulars: OVCAR-3, 48 h, read-out: Activity.
A short description of experiment [31]: Cytotoxicity against human SF539 cells assessed as cell growth at 50 nM after 48 hrs by SRB assay. Particulars: SF-539, 48 h, read-out: Activity.
Experiment [32] relates to K562. Kind of experiment: Cytotoxicity against human K562 cells assessed as cell growth at 5 nM after 48 hrs by SRB assay. Particulars: K562, 48 h, read-out: Activity.
Experiment [33] has as its system T47D. Kind of experiment: Cytotoxicity against human T47D cells assessed as cell growth at 5 nM after 48 hrs by SRB assay. Particulars: read-out: Activity.
Experiment [34] concerns Malme-3M. The experiment is described as follows: Cytotoxicity against human MALME-3M cells assessed as cell growth at 0.5 uM after 48 hrs by SRB assay. Particulars: read-out: Activity.
Experiment [35] has as its system NCI-H23. The experiment is described as follows: Cytotoxicity against human NCI-H23 cells assessed as cell growth at 50 nM after 48 hrs by SRB assay. To be noted: NCI-H23, 48 h, read-out: Activity.
The test system of experiment [36] is U-251. Kind of experiment: Cytotoxicity against human U251 cells assessed as cell growth at 0.5 uM after 48 hrs by SRB assay. To be noted: U-251, 48 h, read-out: Activity.
Experiment [37] deals with HT-29. The experiment is described as follows: Cytotoxicity against human HT-29 cells assessed as cell growth at 0.5 uM after 48 hrs by SRB assay. Particulars: HT-29, 48 h, read-out: Activity.
A short description of experiment [38]: Cytotoxicity against human SF295 cells assessed as cell growth at 50 uM after 48 hrs by SRB assay. To be noted: SF-295, 48 h, read-out: Activity.
Experiment [39] in a line: Cytotoxicity against human HOP62 cells assessed as cell growth at 0.5 uM after 48 hrs by SRB assay. Particulars: HOP-62, 48 h, read-out: Activity.
The test system of experiment [40] is KM12. Kind of experiment: Cytotoxicity against human KM12 cells assessed as cell growth at 50 uM after 48 hrs by SRB assay. To be noted: KM12, 48 h, read-out: Activity.
A short description of experiment [41]: Cytotoxicity against human RXF393 cells assessed as cell growth at 50 uM after 48 hrs by SRB assay. Particulars: RXF 393, 48 h, read-out: Activity.

In the case of `C/C(=C(/c1ccc(O)cc1)c1ccc(OCCN2CCCC2)cc1)c1ccccc1`, the growth at 10 µM in experiment [1] was 17%; in experiment [4], 56%; in experiment [7] it was -38%; in experiment [9], -5%; in experiment [10], -66%; in [12], 46%. Moreover, the growth at 10 µM is 27% in experiment [13], 48% in experiment [15] and -37% in [21]. Moreover, the growth at 0.1 µM in experiment [2] stood at 90%; in experiment [5] it was 101%; in [6], 91%; in experiment [14], 60%; in experiment [16] it was 101%; in experiment [20], 105%. Moreover, the growth at 0.1 µM in [25] turned out to be 90%. Besides, the growth at 0.01 µM in experiment [3] came to 96%; in experiment [11], 97%; in experiment [18] it was 98%; in experiment [19], 92%; in experiment [22], 88%; in [23], 99%. In experiment [8], the growth at 1 µM stood at 104%. Besides, the growth at 100 µM was -87% in experiment [17] and -54% in [24].

Turning to `CCCCCCCCCC(=O)Oc1ccc(/C(=C(/C)c2ccccc2)c2ccc(OCCN3CCCC3)cc2)cc1`, the growth at 0.5 µM amounted to 75% in experiment [26]; 61% in experiment [34]; 67% in experiment [36]; 12% in [37]; 81% in [39]. Moreover, the growth at 50 µM was -82% in experiment [27], -94% in [38], -86% in experiment [40] and -89% in experiment [41]. The growth at 0.005 µM came out at 108% in experiment [28], 100% in [32] and 69% in experiment [33]. In addition, the growth at 0.05 µM in [29] was found to be 98%; in experiment [31], 98%; in experiment [35], 96%. Further, the growth at 5 µM in [30] turned out to be 86%.
